According to patent US10894085B2, “System for thermotherapy treatment or prevention of antimicrobial resistant or biofilm infections” (FUNDACIÓ HOSPITAL UNIVERSITARI VALL D'HEBRON—INSTITUT DE …, priority 2016, dated 2021):
≈ marks a conversion by molar mass, not a printed value. Read-outs that look alike come from different tables or passages of the source.

How the values were obtained:
Format in all cases: cell-based
[1] = system: S. epidermidis; assay: MIC by broth microdilution (Table 4), S. epidermidis
Procedure: (§1) The minimum inhibitory concentration (MIC) values were determined by broth microdilution method according to “Methods for Dilution Antimicrobial Susceptibility Tests for Bacteria That Grow Aerobically: Approved Standard M7-A7. CLSI, Wayne, Pa., USA, 2006” Colistin and amikacin free drugs were evaluated to compare the efficacy of nanoparticles. MIC was evaluated in Pa46, Pa1016, Kp1, Kp4, Abl4, Ab4256, MRSA 15, MRSA 16, SE14 an SE94 strains. ATCC P. aeruginosa 27853, ATCC E. coli 25922 and ATCC A. baumannii 19606 were used as quality control.

[2] = system: A. baumannii; assay: MIC by broth microdilution (Table 4), A. baumannii
Procedure: as §1

[3] = system: methicillin-resistant S. aureus; assay: MIC by broth microdilution (Table 4), MRSA
Procedure: as §1

[4] = system: P. aeruginosa; assay: MIC by broth microdilution (Table 4), P. aeruginosa
Procedure: as §1

[5] = system: Acinetobacter baumannii isogenic strains; assay: microbe, parasite or virus in culture; settings: for MIC: Acinetobacter baumannii
[6] = system: K. pneumoniea; assay: MIC by broth microdilution (Table 4), K. pneumoniae
Procedure: as §1

[7] = system: Klebsiella pneumoniae strains; assay: Antibiotic susceptibility (CLSI category) of K. pneumoniae clinical isolates; for Antibiotic susceptibility and clinical category (CLSI breakpoint): key: S, susceptible; R, resistant; I, intermediate
[8] = system: Pseudomonas aeruginosa strains; assay: Susceptibility (MIC, CLSI category) of P. aeruginosa clinical isolates; for clinical category (CLSI breakpoint): key: S, susceptible; R, resistant; I, intermediate
[9] = read-out: MIC values, strain Abl4 (ST2)
[10] = strain Kp1 (XDR, CTX-M, OXA-48)
[11] = Pseudomonas aeruginosa, strain Pa46 (ST111, XDR, VIM-2), read-out: MIC
[12] = Pseudomonas aeruginosa, strain Pa54 (ST111, XDR, VIM-2), read-out: MIC
[13] = Pseudomonas aeruginosa, strain Pa1016 (ST175, XDR), read-out: MIC
[14] = read-out: MIC values, strain Abl1 (ST103)
[15] = read-out: MIC values, strain Abl4256 (ST38)

NCC[C@H](O)C(=O)N[C@@H]1C[C@H](N)[C@@H](O[C@H]2O[C@H](CN)[C@@H](O)[C@H](O)[C@H]2O)[C@H](O)[C@H]1O[C@H]1O[C@H](CO)[C@@H](O)[C@H](N)[C@H]1O [Amikacin, amikacin]
MIC ([1]; Staphylococcus epidermidis, strain SE14, read-out: MIC): 1 to 2 mg/L (≈ 1.71 to 3.42 µM)
MIC ([1]; Staphylococcus epidermidis, strain SE94, read-out: MIC): 1 mg/L (≈ 1.71 µM)
MIC ([2]; Acinetobacter baumannii, strain Ab4256, read-out: MIC): 8 mg/L (≈ 13.7 µM)
MIC ([2]; Acinetobacter baumannii, strain Abl4, read-out: MIC): 1 mg/L (≈ 1.71 µM)
MIC ([3]; Staphylococcus aureus, strain MRSA15, read-out: MIC): 8 to 16 mg/L (≈ 13.7 to 27.3 µM)
MIC ([3]; strain MRSA16): 8 to 16 mg/L
MIC ([4]; Pseudomonas aeruginosa, strain Pa46, read-out: MIC): 8 mg/L (≈ 13.7 µM)
MIC ([4]; Pseudomonas aeruginosa, strain Pa1016, read-out: MIC): 0.5 mg/L (≈ 0.854 µM)
MIC [5, 9]: ≤ 2 mg/L
susceptibility ([5]; strain Abl4 (ST2)): susceptible
MIC ([6]; Klebsiella pneumoniae, strain Kp1, read-out: MIC): 2 mg/L (≈ 3.42 µM)
MIC ([6]; Klebsiella pneumoniae, strain Kp4, read-out: MIC): 1 to 2 mg/L (≈ 1.71 to 3.42 µM)
susceptibility ([7]; strain Kp1): susceptible
Antibiotic susceptibility and clinical category (CLSI breakpoint) [7, 10]: S
Antibiotic susceptibility and clinical category (CLSI breakpoint) ([7]; strain Kp2 (XDR, CTX-M, NDM)): R
Antibiotic susceptibility and clinical category (CLSI breakpoint) ([7]; strain Kp3 (XDR, KPC)): R
susceptibility ([7]; strain Kp4): susceptible
Antibiotic susceptibility and clinical category (CLSI breakpoint) ([7]; strain Kp4 (XDR, AmpC)): S
MIC [8, 11]: 16 mg/L (≈ 27.3 µM)
MIC [8, 12]: 16 mg/L (≈ 27.3 µM)
MIC [8, 13]: 2 mg/L (≈ 3.42 µM)
clinical category (CLSI breakpoint) ([8]; strain Pa46): S
susceptibility ([8]; strain Pa46): susceptible
clinical category (CLSI breakpoint) ([8]; strain Pa54): S
susceptibility ([8]; strain Pa54): susceptible
clinical category (CLSI breakpoint) ([8]; strain Pa1016): S
susceptibility ([8]; strain Pa1016): susceptible

CCN1CCN(C(=O)N[C@@H](C(=O)N[C@@H]2C(=O)N3[C@@H]2SC(C)(C)[C@@H]3C(=O)O)c2ccccc2)C(=O)C1=O [PIP]
MIC values ([5]; strain Abl1 (ST103)): >=128 mg/L
MIC values ([5]; strain Abl4 (ST2)): >=128 mg/L
MIC values ([5]; strain Abl4256 (ST38)): >64 mg/L

C[C@@H](O)[C@H]1C(=O)N2C(C(=O)O)=C(SCCN=CN)C[C@H]12 [IMP, imipenem]
MIC [5, 14]: ≥ 16 mg/L
MIC [5, 9]: ≥ 16 mg/L
MIC [5, 15]: 64 mg/L (≈ 214 µM)
Antibiotic susceptibility and clinical category (CLSI breakpoint) [7, 10]: R
Antibiotic susceptibility and clinical category (CLSI breakpoint) ([7]; strain Kp2 (XDR, CTX-M, NDM)): R
Antibiotic susceptibility and clinical category (CLSI breakpoint) ([7]; strain Kp3 (XDR, KPC)): R
Antibiotic susceptibility and clinical category (CLSI breakpoint) ([7]; strain Kp4 (XDR, AmpC)): R
MIC [8, 11]: 256 mg/L (≈ 855 µM)
MIC [8, 12]: 256 mg/L (≈ 855 µM)
MIC [8, 13]: 16 mg/L (≈ 53.4 µM)

CC1(C)S[C@@H]2[C@H](NC(=O)[C@H](N)c3ccccc3)C(=O)N2[C@H]1C(=O)O [AMP, ampicillin]
Antibiotic susceptibility and clinical category (CLSI breakpoint) [7, 10]: R
Antibiotic susceptibility and clinical category (CLSI breakpoint) ([7]; strain Kp2 (XDR, CTX-M, NDM)): R
Antibiotic susceptibility and clinical category (CLSI breakpoint) ([7]; strain Kp3 (XDR, KPC)): R
Antibiotic susceptibility and clinical category (CLSI breakpoint) ([7]; strain Kp4 (XDR, AmpC)): R

colistin
MIC ([1]; strain SE14): 32 to 64 mg/L
MIC ([1]; strain SE94): 32 mg/L
MIC ([2]; strain Ab4256): 0.25 mg/L
MIC ([2]; strain Abl4): 1 mg/L
MIC ([3]; strain MRSA15): >128 mg/L
MIC ([4]; strain Pa46): 0.5 to 1 mg/L
MIC ([4]; strain Pa1016): 0.5 to 1 mg/L
susceptibility ([5]; strain AbII (ST103)): susceptible
MIC values ([5]; strain Abl1 (ST103)): <=0.5 mg/L
MIC values ([5]; strain Abl4 (ST2)): <=0.5 mg/L
susceptibility ([5]; strain Abl4 (ST2)): susceptible
MIC values ([5]; strain Abl4256 (ST38)): 0.25 mg/L
MIC ([6]; strain Kp1): 1 mg/L
MIC ([6]; strain Kp4): 0.125 to 0.25 mg/L
susceptibility ([7]; strain Kp1): susceptible
Antibiotic susceptibility and clinical category (CLSI breakpoint) [7, 10]: S
susceptibility ([7]; strain Kp2): susceptible
Antibiotic susceptibility and clinical category (CLSI breakpoint) ([7]; strain Kp2 (XDR, CTX-M, NDM)): S
susceptibility ([7]; strain Kp3): susceptible
Antibiotic susceptibility and clinical category (CLSI breakpoint) ([7]; strain Kp3 (XDR, KPC)): S
susceptibility ([7]; strain Kp4): susceptible
Antibiotic susceptibility and clinical category (CLSI breakpoint) ([7]; strain Kp4 (XDR, AmpC)): S
clinical category (CLSI breakpoint) ([8]; strain Pa46): S
susceptibility ([8]; strain Pa46): susceptible
MIC ([8]; strain Pa46 (ST111, XDR, VIM-2)): 0.5 mg/L
clinical category (CLSI breakpoint) ([8]; strain Pa54): S
susceptibility ([8]; strain Pa54): susceptible
MIC ([8]; strain Pa54 (ST111, XDR, VIM-2)): 0.5 mg/L
clinical category (CLSI breakpoint) ([8]; strain Pa1016): S
susceptibility ([8]; strain Pa1016): susceptible
MIC ([8]; strain Pa1016 (ST175, XDR)): 1 mg/L

gentamicin
MIC values ([5]; strain Abl1 (ST103)): >=16 mg/L
MIC values ([5]; strain Abl4 (ST2)): 4 mg/L
MIC values ([5]; strain Abl4256 (ST38)): >8 mg/L
Antibiotic susceptibility and clinical category (CLSI breakpoint) [7, 10]: R
Antibiotic susceptibility and clinical category (CLSI breakpoint) ([7]; strain Kp2 (XDR, CTX-M, NDM)): R
susceptibility ([7]; strain Kp3): susceptible
Antibiotic susceptibility and clinical category (CLSI breakpoint) ([7]; strain Kp3 (XDR, KPC)): S
Antibiotic susceptibility and clinical category (CLSI breakpoint) ([7]; strain Kp4 (XDR, AmpC)): R

C[C@H]1[C@H](NC(=O)/C(=N\OC(C)(C)C(=O)O)c2csc(N)n2)C(=O)N1S(=O)(=O)O [ATM, aztreonam]
MIC [8, 11]: 16 mg/L (≈ 36.7 µM)
MIC [8, 12]: 32 mg/L (≈ 73.5 µM)
MIC [8, 13]: 32 mg/L (≈ 73.5 µM)

CN(C)c1cc(NC(=O)CNC(C)(C)C)c(O)c2c1C[C@H]1C[C@H]3[C@H](N(C)C)C(O)=C(C(N)=O)C(=O)[C@@]3(O)C(O)=C1C2=O [TIG, tigecycline]
MIC [5, 14]: 2 mg/L (≈ 3.41 µM)
MIC [5, 9]: 4 mg/L (≈ 6.83 µM)
MIC [5, 15]: 0.5 mg/L (≈ 0.854 µM)
susceptibility ([5]; strain AbII (ST103)): susceptible
susceptibility ([5]; strain Abl4 (ST2)): susceptible

CO/N=C(\C(=O)N[C@@H]1C(=O)N2C(C(=O)[O-])=C(C[N+]3(C)CCCC3)CS[C@H]12)c1csc(N)n1 [FEP, cefepime]
MIC [5, 14]: ≥ 64 mg/L
MIC [5, 9]: ≥ 64 mg/L
MIC [5, 15]: 16 mg/L (≈ 33.3 µM)
Antibiotic susceptibility and clinical category (CLSI breakpoint) [7, 10]: R
Antibiotic susceptibility and clinical category (CLSI breakpoint) ([7]; strain Kp2 (XDR, CTX-M, NDM)): R
Antibiotic susceptibility and clinical category (CLSI breakpoint) ([7]; strain Kp3 (XDR, KPC)): R
Antibiotic susceptibility and clinical category (CLSI breakpoint) ([7]; strain Kp4 (XDR, AmpC)): R

CC(C)(O/N=C(\C(=O)N[C@@H]1C(=O)N2C(C(=O)[O-])=C(C[n+]3ccccc3)CS[C@H]12)c1csc(N)n1)C(=O)O [CAZ, ceftazidime]
MIC [5, 14]: ≥ 64 mg/L
MIC [5, 9]: ≥ 64 mg/L
MIC [5, 15]: < 8 mg/L
Antibiotic susceptibility and clinical category (CLSI breakpoint) [7, 10]: R
Antibiotic susceptibility and clinical category (CLSI breakpoint) ([7]; strain Kp2 (XDR, CTX-M, NDM)): R
Antibiotic susceptibility and clinical category (CLSI breakpoint) ([7]; strain Kp3 (XDR, KPC)): R
Antibiotic susceptibility and clinical category (CLSI breakpoint) ([7]; strain Kp4 (XDR, AmpC)): R

C[C@@H](O)[C@H]1C(=O)N2C(C(=O)O)=C(S[C@@H]3CN[C@H](C(=O)N(C)C)C3)[C@H](C)[C@H]12 [MEM, meropenem]
MIC [5, 14]: ≥ 16 mg/L
MIC [5, 9]: ≥ 16 mg/L
MIC [5, 15]: > 16 mg/L
Antibiotic susceptibility and clinical category (CLSI breakpoint) [7, 10]: R
Antibiotic susceptibility and clinical category (CLSI breakpoint) ([7]; strain Kp2 (XDR, CTX-M, NDM)): R
Antibiotic susceptibility and clinical category (CLSI breakpoint) ([7]; strain Kp3 (XDR, KPC)): R
Antibiotic susceptibility and clinical category (CLSI breakpoint) ([7]; strain Kp4 (XDR, AmpC)): R

C[C@@H]1O[C@@H]1P(=O)(O)O [FOS, fosfomycin]
susceptibility ([7]; strain Kp1): susceptible
Antibiotic susceptibility and clinical category (CLSI breakpoint) [7, 10]: S
susceptibility ([7]; strain Kp2): susceptible
Antibiotic susceptibility and clinical category (CLSI breakpoint) ([7]; strain Kp2 (XDR, CTX-M, NDM)): S
Antibiotic susceptibility and clinical category (CLSI breakpoint) ([7]; strain Kp3 (XDR, KPC)): R
Antibiotic susceptibility and clinical category (CLSI breakpoint) ([7]; strain Kp4 (XDR, AmpC)): R

NC[C@H]1O[C@H](O[C@H]2[C@H](O)[C@@H](O[C@H]3O[C@H](CO)[C@@H](O)[C@H](N)[C@H]3O)[C@H](N)C[C@@H]2N)[C@H](N)C[C@@H]1O [TOB, tobramycin]
MIC [8, 11]: 64 mg/L (≈ 137 µM)
MIC [8, 12]: 128 mg/L (≈ 274 µM)
MIC [8, 13]: 16 mg/L (≈ 34.2 µM)
clinical category (CLSI breakpoint) ([8]; strain Pa46): R
clinical category (CLSI breakpoint) ([8]; strain Pa54): R
clinical category (CLSI breakpoint) ([8]; strain Pa1016): R

C[C@H]1COc2c(N3CCN(C)CC3)c(F)cc3c(=O)c(C(=O)O)cn1c23 [LVX, levofloxacin]
MIC [5, 14]: 4 mg/L (≈ 11.1 µM)
MIC [5, 9]: 4 mg/L (≈ 11.1 µM)
MIC [5, 15]: ≤ 1 mg/L
MIC [8, 11]: 32 mg/L (≈ 88.6 µM)
MIC [8, 12]: 32 mg/L (≈ 88.6 µM)
MIC [8, 13]: 128 mg/L (≈ 354 µM)
clinical category (CLSI breakpoint) ([8]; strain Pa46): R
clinical category (CLSI breakpoint) ([8]; strain Pa54): R
clinical category (CLSI breakpoint) ([8]; strain Pa1016): R
